# Assay results: patent US20040086942A1, “Ige receptor antagonists” (priority 2003, published 2004)
# Several values for one entry are separate records, joined by “and”; a condition that tells them apart may be missing. Identical values can stand only once. Like-named read-outs stand apart in the source and are kept apart here. Where a SMILES comes first, the peptide text is derived from it. Bridges are numbered along the chain shown (N, C = ends). Roman numbers before positions name the chains, in order.
# Columns and labels:
# [1] = biological target: T1, alpha subunit of the human FcεRI receptor (Homo sapiens, UniProt P12319); test: cell-based 125I-IgE binding inhibition assay on CHO FcεRI+ cells; conditions: for IC50: IgE-inhibition activity of synthetic peptides, read-out: Inhibition activity: C+hd 50 +l (uM) ± s.d.
# T1 construct: expressed in transfected cells; host or cells: Chinese hamster ovary (CHO FcεRI+) cells
# T1 sequence (P12319 26-257): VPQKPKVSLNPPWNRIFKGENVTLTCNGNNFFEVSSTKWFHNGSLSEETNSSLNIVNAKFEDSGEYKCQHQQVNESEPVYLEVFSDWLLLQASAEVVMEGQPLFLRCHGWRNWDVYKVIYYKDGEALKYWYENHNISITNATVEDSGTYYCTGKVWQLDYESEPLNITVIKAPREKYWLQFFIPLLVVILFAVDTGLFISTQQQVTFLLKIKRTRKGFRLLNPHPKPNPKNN
# How it was run: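 Peptides, serially diluted 1:3 from 50-500 uM, preincubated 1 h at room temperature on CHO cells expressing human FcεRI alpha, then 1.5 nM 125I-IgE added for 45-60 min at 4 °C. Buffer F12/DMEM, 1% BSA, 0.05% NaN3, pH 7.2. Bound counts by gamma counting; IC50 from 4-parameter fits.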
# [2] = 2D NMR structural score versus reference peptide; assay type: physicochemical; design: key to Structure Score: +++, peptide structurally similar to reference; +, structurally similar to reference but significantly less stable; +/−, peptide has some elements of stable structure, but the conformation differs from the reference structure; −, peptide is predominantly unstructured; *peptide IGE037 (SEQ ID NO:128) was initially unstructured (monomeric form), but became structured after spontaneous dimer formation; conditions: reference IGE134
# How it was run: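 Backbone ¹H resonances assigned by 2D NMR and ³JHN-Hα coupling constants measured against a reference peptide. Structure scored similar when chemical shifts, coupling constants and NOEs are consistent with the reference structure.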
# FcεRIα = biological target: T2, FcεRIα (Homo sapiens, UniProt P12319); test: surface plasmon resonance biosensor direct-binding assay; conditions: midpoint of 4-parameter fit to peptide saturation curve, immobilized receptor; read-out: Binding affinity: EC50 (uM) ± s.d.
# T2 construct: human FcεRI(aa 1-176) was expressed using a baculovirus secretion expression system; host or cells: Hi-5 insect cells infected with baculovirus (virus produced in Sf9; transfer vector pAcGP67)
# T2 sequence (P12319 26-201): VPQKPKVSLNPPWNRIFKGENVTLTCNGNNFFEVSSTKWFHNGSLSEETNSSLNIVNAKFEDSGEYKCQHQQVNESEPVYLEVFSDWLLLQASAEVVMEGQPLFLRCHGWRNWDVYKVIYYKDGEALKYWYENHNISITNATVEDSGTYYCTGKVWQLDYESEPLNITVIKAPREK
# Procedure: Several peptides were also tested in a direct-binding assay using a surface plasmon resonance biosensor (Lofas & Johnsson, J. Chem. Soc. Commun. 21, 1526-1528 (1990)). FcεRIα, produced in baculovirus infected insect cells, was immobilized by the surface thiol method (BIAcore Methods Manual Supplement 5a, BIAcore, Inc., Piscataway, N.J.). Briefly, receptor was reacted with 2-(2pyridinyldithio)ethaneamine hydrochloride (PDEA; Natake & Swaisgood, J. Biochem. 74, 77-86 (1973)), desalted into 10 mM sodium acetate (pH 4.8) and stored in aliquots at −80″C. Thawed PDEA-receptor was injected over carboxymethyl-dextran (B1 or CM5, BIAcore, Inc.) biosensor chips preactivated with N-ethyl-N′-(3-dimethylaminopropyl)-carbodiimide hydrochloride (EDC) and N-hydroxysuccinimide (NHS), cystamine, and DTT. Following coupling, reactive groups on the chip were quenched with […] and ethanolarine. Serial dilutions of peptide in running buffer (phosphate-buffered saline containing 0.05% Tween-20, 0.01% sodium azide) were injected over the immobilized receptor, and the net amount of peptide bound at steady-state was measured as the net change in response (RU) at a point just prior to termination of peptide injection, compared to a running-buffer baseline. Binding affinities (Table 10) are reported as the midpoint (EC50) of a 4-parameter fit to the peptide saturation curve.
# FcεRI-IgG = biological target: T3, FcεRI-IgG (Homo sapiens, UniProt P12319); test: g3 phage competitive binding ELISA (competition with soluble FcεRI-IgG); conditions: for Relative (IC50) (fold weaker): relative to g3c.42, NDB = no detectable binding
# T3 construct: consisting of the extracellular domain of FcεR Ifused to the Fc domain of IgG; host or cells: CHO cells
# T3 sequence (P12319 26-205 limits assumed): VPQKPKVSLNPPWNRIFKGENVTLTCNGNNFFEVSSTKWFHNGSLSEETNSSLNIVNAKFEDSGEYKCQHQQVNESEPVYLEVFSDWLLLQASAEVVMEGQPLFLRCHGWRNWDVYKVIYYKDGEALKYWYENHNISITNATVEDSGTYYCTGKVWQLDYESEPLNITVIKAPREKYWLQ
# Procedure: A phage based competitive binding ELISA for immobilized FcεRI-IgG in the presence of titrated amounts of soluble FcεRI-IgG was performed on each of the clones.
# Peptide sequences from g8p-fused phage clones that specifically bound FcεRI-IgG were transferred onto a g3p-display format for monovalent phage display (Bass et al., Proteins 8, 309-314 (1990); Lowman et al., Biochemistry 30, 10832-10838 (1991)). An oligonucleotide encoding for each desired peptide with additional 5′ and 3′ base pair that overlapped with g3 was synthesized. This oligonucleotide was annealed with a g3 single stranded DNA phagemid template. The mutagenesis reaction was transformed into XL-1 Blue E. coli and plated on LB-carb+ agar plates. Individual colonies were propagated in 5 mL of 2YT broth, tetracycline, carbenicillin and VCSM13 helper phage (Stratagene). Single stranded DNA was isolated from the purified phage particles and sequenced to confirm the insertion of the phage peptide sequence. 25 mL preparations of g3 phage clones were propagated overnight and purified by PEG precipitation. After resuspension of the phage pellet in 1.0 mL of PBS, it was serially diluted ⅓ and incubated with immobilized FcεRI-IgG 2 ug/mL in a 96 well Maxisorp microtiter plate for 1 hour at room temperature. The wells were washed 10× with PBST then incubated with 100 uL of anti M13 phage HRP as described above. An OD(492) value corresponding to less than 50% binding was selected and the purified phage clones were diluted to yield this normalized level of signal. […] The mixture was then transferred to 96 well microtiter dishes containing immobilized FcεRI-IgG. After a 1-hour incubation period, the plates were washed 10 times, incubated with anti M13-HRP conjugated antibody and developed with OPD as described above. The data was plotted, and 4-parameter fits (KaleidaGraph 3.0) used for calculation of IC50 values.
# Alanine substitutions were made at various positions throughout the peptide sequence for monovalent (g3p) phage display using site directed mutagenesis as described (Kunkel et al., Methods Enzymol. 204, 125-139 (1991)). In addition, stepwise N-terminal and C-terminal truncations of the peptide sequence were constructed. All constructs were made by designing oligonucleotides corresponding to the desired substitution or truncation, with an additional 18 bp of DNA overlapping the peptide or g3 phage DNA sequence. The phage clones were propagated overnight following infection in XL-1 Blue E. coli. Purified phage preparations were titered and assayed for binding to immobilized receptor. FcεRI-IgG competition assays were performed as described above.
# FcεRI = biological target: T4, FcεRI (Homo sapiens, UniProt P12319); test: competitive phage ELISA on baculovirus-derived FcεRI; assay type: binding; conditions: for relative binding affinity (in words): compared with the parent
# T4 construct: human FcεRI(aa 1-176) was expressed using a baculovirus secretion expression system; host or cells: Hi-5 insect cells infected with baculovirus (virus produced in Sf9; transfer vector pAcGP67)
# T4 sequence (P12319 26-201): T2 sequence (P12319 26-201)
# Text: The extracellular domain of the alpha subunit of the human FcεRI(aa 1-176) was expressed using a baculovirus secretion expression system (Pharminten). cDNA encoding this domain was obtained through PCR of a plasmid containing a full length clone. The DNA fragment was ligated into baculovirus tranfer vector pAcGP67 and along with BaculoGold linearized baculovirus DNA was transfected into Sf9 cells Spodoptera frugiperda insect cells for baculovirus production (Pharmingen). Soluble FcεRI was affinity purified from the growth media of baculovirus infected Hi-5 insect cells (Expression Systems).
# Phage ELISA assays were carried out as described (Lowman, 1998, supra), using Nunc Maxisorp™ plates coated with a 2 μg/mL solution of baculovirus-derived FcεRI. Peptide-phage were pre-incubated for 5-10 min with serial dilutions of receptor, then added to the receptor-coated plate. After incubation for 1 h at room temperature, the plates were washed and an anti-phage HRP-conjugated antibody (Pharmacia) was added. After further incubation for 20 min, plates were again washed and developed using the substrate OPD (Sigma). Optical density at 492 nm was read and plotted as a function of FcεRI concentration to determine an IC50 of inhibition by each peptide-phage variant.
# A phage-based alanine scanning approach was used to map the FcεRI binding determinants of IGE134 (SEQ ID NOS:155, 171), as described above for IGE120 (SEQ ID NO:131, 159). […] Additionally, combinations of Ala mutations, deletions, and other substitutions were tested.
# [3] = g3 phage clones, immobilized FcεRI-IgG, titrated soluble FcεRI-IgG, read-out: Phage IC50
# [4] = truncated peptides on g3 phage, read-out: IC50
compound,measurement,setting,value
"CC(C)C[C@H](NC(=O)[C@H](C)N)C(=O)N[C@H]1CSSC[C@H](NC(=O)[C@H](CC(C)C)NC(=O)[C@H](C)N)C(=O)N2CCC[C@H]2C(=O)N[C@@H](C)C(=O)N[C@@H](C(C)C)C(=O)N[C@H](C(=O)N[C@@H](Cc2ccc(O)cc2)C(=O)N[C@H](C(N)=O)C(C)C)CSSC[C@@H](C(=O)N[C@@H](Cc2ccc(O)cc2)C(=O)N[C@H](C(N)=O)C(C)C)NC(=O)[C@H](C(C)C)NC(=O)[C@H](C)NC(=O)[C@@H]2CCCN2C1=O [IGE088, ALCPAVCYV-nh2] (I: H-ALCPAVCYV-NH2 / II: H-ALCPAVCYV-NH2; disulfide I:3-II:3, I:7-II:7; N-terminus assumed)",IC50,[1],> 450 µM
same,Structure Score,[2],+/−
same,EC50,FcεRIα,> 450 µM
"CC(C)C[C@H](NC(=O)[C@H](C)N)C(=O)N[C@H]1CSSC[C@@H](C(=O)N[C@@H](Cc2ccc(O)cc2)C(=O)N[C@H](C(N)=O)C(C)C)NC(=O)[C@H](C(C)C)NC(=O)[C@H](C)NC(=O)[C@@H]2CCCN2C(=O)[C@@H](NC(=O)[C@H](CC(C)C)NC(=O)[C@H](C)N)CSSC[C@@H](C(=O)N[C@@H](Cc2ccc(O)cc2)C(=O)N[C@H](C(N)=O)C(C)C)NC(=O)[C@H](C(C)C)NC(=O)[C@H](C)NC(=O)[C@@H]2CCCN2C1=O [IGE089] (I: H-ALCPAVCYV-NH2 / II: H-ALCPAVCYV-NH2; disulfide I:3-II:7, I:7-II:3)",inhibiting 125I-IgE binding to cell surface expressed FcεRI (in words),[1],Significant inhibitory activity
same,IC50,[1],64 µM
same,Structure Score,[2],+++
same,EC50,FcεRIα,64 µM
"CC(C)[C@H](N)C(=O)N[C@@H](CCC(N)=O)C(=O)N[C@H]1CSSC[C@@H](C(=O)N[C@@H](Cc2ccc(O)cc2)C(=O)N[C@H](C(N)=O)C(C)C)NC(=O)[C@H](Cc2ccccc2)NC(=O)[C@H](Cc2c[nH]cn2)NC(=O)[C@@H]2CCCN2C1=O [IGE129, VQCPHFCYV-nh2] (H-VQCPHFCYV-NH2; disulfide 3-7)",EC50,FcεRIα,> 90 µM
AMAQCTEGPWGWVCMAAD [g3b.5],IC50,FcεRI-IgG; [3],10 nM
CTEGPWGWVCMAAD [g3c.21],Relative (IC50) (fold weaker),FcεRI-IgG; truncated peptides on g3 phage,NDB
DLPACTEGPWGWVCMAAD [g3b.7],IC50,FcεRI-IgG; [3],9 nM
GRAQCTEGPWGWVCMAAD [g3b.6],IC50,FcεRI-IgG; [3],16 nM
GRTECTEGPWGWVCMAAD [g3b.8],IC50,FcεRI-IgG; [3],14 nM
IVCPRLCYVGGKALCPDVCAV [SEQ ID NO:143],fold reduction in binding affinity compared to IGE120,FcεRI; IGE120-phage alanine scan,No detectable binding
IVCPRLCYVGGKALCPDVCYV [SEQ ID NO:131],relative binding affinity (in words),FcεRI,improved binding affinity
IVCPRLCYELDYELCPDVCYV,fold improved affinity over IGE120,FcεRI; clone from IGE120-phage library,about 2 fold
LPRCTEGPWGWVCMAAD [g3c.1],Relative (IC50) (fold weaker),FcεRI-IgG; truncated peptides on g3 phage,1X
same,IC50,FcεRI-IgG; [4],3 nM
NLPRCTEGPWGWVCM [g3c.34],Relative (IC50) (fold weaker),FcεRI-IgG; truncated peptides on g3 phage,3X
same,IC50,FcεRI-IgG; [4],14.6 nM
NLPRCTEGPWGWVCMA [g3c.31],Relative (IC50) (fold weaker),FcεRI-IgG; truncated peptides on g3 phage,1X
same,IC50,FcεRI-IgG; [4],6.1 nM
NLPRCTEGPWGWVCMAA [g3c.29],Relative (IC50) (fold weaker),FcεRI-IgG; truncated peptides on g3 phage,1X
same,IC50,FcεRI-IgG; [4],5 nM
NLPRCTEGPWGWVCMAAD [g3b.1],IC50,FcεRI-IgG; [3],13 nM
NLPRCTEGPWGWVCMAAD [g3c.42],Relative (IC50) (fold weaker),FcεRI-IgG; truncated peptides on g3 phage,1X
same,IC50,FcεRI-IgG; [4],3.1 nM and 5.6 nM
NLPTCTEGPWGWVCMAAD [g3b.3],IC50,FcεRI-IgG; [3],7 nM
RCTEGPWGWVCMAAD [g3c.17],Relative (IC50) (fold weaker),FcεRI-IgG; truncated peptides on g3 phage,NDB
VMPTCTEGPWGWVCMAAD [g3b.4],IC50,FcεRI-IgG; [3],7 nM
VQCPHFCYVGGKALCPDVCYV,relative binding affinity (in words),FcεRI,improved binding affinity
